Experiments:
Format in all cases: cell-based
[1] = system: Hormoconis resinae ATCC#20495; assay: Microbial testing in diesel fuel, plate count
[2] = system: Pseudomonas aeruginosa ATCC#33988; assay: Microbial testing in biodiesel fuel, plate count; details: for Ps. aeruginosa organism count: Biocide 0 ppm; for Bacteria (Ps. aeruginosa) count: no biocide
[3] = system: Yarrowia tropicalis ATCC#48138; assay: Microbial testing in diesel fuel, plate count
[4] = system: Pseudomonas aeruginosa ATCC#33988; assay: Microbial testing in diesel fuel, plate count
[5] = system: Hormoconis resinae ATCC#20495; assay: Microbial testing in biodiesel fuel, plate count; details: for H. resinae organism count: Biocide 0 ppm; for Mold (H. resinae) count: no biocide
[6] = system: Yarrowia tropicalis ATCC#48138; assay: Microbial testing in biodiesel fuel, plate count; details: Biocide 0 ppm
[7] = system: mixed inoculum (Ps. aeruginosa, Y. tropicalis, H. resinae); assay: Microbial resistance of biodiesel fuel, overall statements; details: absence of biocide
[8] = amino alcohol 1500 ppm + FS 135 ppm, Day 0
[9] = amino alcohol 1500 ppm + FS 135 ppm, Wk 1
[10] = amino alcohol 1500 ppm + FS 135 ppm, Wk 2
[11] = amino alcohol 1500 ppm + FS 135 ppm, Wk 3
[12] = amino alcohol 1500 ppm + FS 135 ppm, Wk 4
[13] = amino alcohol 1500 ppm + FS 1000 ppm, Day 0
[14] = amino alcohol 1500 ppm + FS 1000 ppm, Wk 1
[15] = amino alcohol 1500 ppm + FS 1000 ppm, Wk 2
[16] = amino alcohol 1500 ppm + FS 1000 ppm, Wk 3
[17] = amino alcohol 1500 ppm + FS 1000 ppm, Wk 4
[18] = amino alcohol 1500 ppm, no biocide, Day 0
[19] = amino alcohol 1500 ppm, no biocide, Wk 1
[20] = amino alcohol 1500 ppm, no biocide, Wk 2
[21] = amino alcohol 1500 ppm, no biocide, Wk 3
[22] = amino alcohol 1500 ppm, no biocide, Wk 4
[23] = amino alcohol 3000 ppm + FS 135 ppm, Day 0
[24] = amino alcohol 3000 ppm + FS 135 ppm, Wk 1
[25] = amino alcohol 3000 ppm + FS 135 ppm, Wk 2
[26] = amino alcohol 3000 ppm + FS 135 ppm, Wk 3
[27] = amino alcohol 3000 ppm + FS 135 ppm, Wk 4
[28] = amino alcohol 3000 ppm + FS 1000 ppm, Day 0
[29] = amino alcohol 3000 ppm + FS 1000 ppm, Wk 1
[30] = amino alcohol 3000 ppm + FS 1000 ppm, Wk 2
[31] = amino alcohol 3000 ppm + FS 1000 ppm, Wk 3
[32] = amino alcohol 3000 ppm + FS 1000 ppm, Wk 4
[33] = amino alcohol 3000 ppm, no biocide, Day 0
[34] = amino alcohol 3000 ppm, no biocide, Wk 1
[35] = amino alcohol 3000 ppm, no biocide, Wk 2
[36] = amino alcohol 3000 ppm, no biocide, Wk 3
[37] = amino alcohol 3000 ppm, no biocide, Wk 4

## NC1(CO)CCCCC1 [ACyHM, 1-aminocyclohexylmethanol]
[1]; [8]
  H. resinae organism count: 5.3E5
[1]; [9]
  H. resinae organism count: 2.5E5
[1]; [10]
  H. resinae organism count: 2.0E3
[1]; [11]
  H. resinae organism count: 4.3E2
[1]; [12]
  H. resinae organism count: 7.0E2
[1]; [13]
  H. resinae organism count: 5.3E5
[1]; [14]
  H. resinae organism count: 1.1E4
[1]; [15]
  H. resinae organism count: <10
[1]; [16]
  H. resinae organism count: <10
[1]; [17]
  H. resinae organism count: 8.0E1
[1]; [18]
  H. resinae organism count: 5.3E5
[1]; [19]
  H. resinae organism count: 5.0E5
[1]; [20]
  H. resinae organism count: 1.3E5
[1]; [21]
  H. resinae organism count: 1.2E5
[1]; [22]
  H. resinae organism count: 2.7E5
[1]; [23]
  H. resinae organism count: 5.3E5
[1]; [24]
  H. resinae organism count: 2.0E3
[1]; [25]
  H. resinae organism count: 2.7E2
[1]; [26]
  H. resinae organism count: <10
[1]; [27]
  H. resinae organism count: 1.6E2
[1]; [28]
  H. resinae organism count: 5.3E5
[1]; [29]
  H. resinae organism count: 4.3E2
[1]; [30]
  H. resinae organism count: <10
[1]; [31]
  H. resinae organism count: 5.0E1
[1]; [32]
  H. resinae organism count: <10
[1]; [33]
  H. resinae organism count: 5.3E5
[1]; [34]
  H. resinae organism count: 9.4E4
[1]; [35]
  H. resinae organism count: 4.6E4
[1]; [36]
  H. resinae organism count: 6.6E4
[1]; [37]
  H. resinae organism count: 4.8E4
[2]; aminoalcohol 1500 ppm, Week 1
  Ps. aeruginosa organism count: <1.0E2
[2]; aminoalcohol 1500 ppm, Week 2
  Ps. aeruginosa organism count: <1.0E2
[2]; aminoalcohol 1500 ppm, Week 3
  Ps. aeruginosa organism count: <1.0E2
[2]; aminoalcohol 1500 ppm, Week 4
  Ps. aeruginosa organism count: <1.0E2
[2]; aminoalcohol 3000 ppm, Week 1
  Ps. aeruginosa organism count: <1.0E2
[2]; aminoalcohol 3000 ppm, Week 2
  Ps. aeruginosa organism count: <1.0E2
[2]; aminoalcohol 3000 ppm, Week 3
  Ps. aeruginosa organism count: <1.0E2
[2]; aminoalcohol 3000 ppm, Week 4
  Ps. aeruginosa organism count: <1.0E2
[3]; [8]
  Y. tropicalis organism count: 2.8E5
[3]; [9]
  Y. tropicalis organism count: 7.8E4
[3]; [10]
  Y. tropicalis organism count: 5.0E3
[3]; [11]
  Y. tropicalis organism count: 6.7E2
[3]; [12]
  Y. tropicalis organism count: 1.8E2
[3]; [13]
  Y. tropicalis organism count: 2.8E5
[3]; [14]
  Y. tropicalis organism count: 1.6E4
[3]; [15]
  Y. tropicalis organism count: <10
[3]; [16]
  Y. tropicalis organism count: <10
[3]; [17]
  Y. tropicalis organism count: <10
[3]; [18]
  Y. tropicalis organism count: 2.8E5
[3]; [19]
  Y. tropicalis organism count: 4.5E5
[3]; [20]
  Y. tropicalis organism count: 1.3E5
[3]; [21]
  Y. tropicalis organism count: 7.6E4
[3]; [22]
  Y. tropicalis organism count: 5.3E4
[3]; [23]
  Y. tropicalis organism count: 2.8E5
[3]; [24]
  Y. tropicalis organism count: 1.3E2
[3]; [25]
  Y. tropicalis organism count: <10
[3]; [26]
  Y. tropicalis organism count: <10
[3]; [27]
  Y. tropicalis organism count: <10
[3]; [28]
  Y. tropicalis organism count: 2.8E5
[3]; [29]
  Y. tropicalis organism count: <10
[3]; [30]
  Y. tropicalis organism count: <10
[3]; [31]
  Y. tropicalis organism count: <10
[3]; [32]
  Y. tropicalis organism count: <10
[3]; [33]
  Y. tropicalis organism count: 2.8E5
[3]; [34]
  Y. tropicalis organism count: 9.3E4
[3]; [35]
  Y. tropicalis organism count: 4.0E4
[3]; [36]
  Y. tropicalis organism count: 1.6E4
[3]; [37]
  Y. tropicalis organism count: 2.7E4
[4]; [8]
  Ps. aeruginosa organism count: 3.7E6
[4]; [9]
  Ps. aeruginosa organism count: 9.0E5
[4]; [10]
  Ps. aeruginosa organism count: 4.3E4
[4]; [11]
  Ps. aeruginosa organism count: 1.1E2
[4]; [12]
  Ps. aeruginosa organism count: 2.3E2
[4]; [13]
  Ps. aeruginosa organism count: 3.7E6
[4]; [14]
  Ps. aeruginosa organism count: 7.8E3
[4]; [15]
  Ps. aeruginosa organism count: <10
[4]; [16]
  Ps. aeruginosa organism count: <10
[4]; [17]
  Ps. aeruginosa organism count: <10
[4]; [18]
  Ps. aeruginosa organism count: 3.7E6
[4]; [19]
  Ps. aeruginosa organism count: 5.8E6
[4]; [20]
  Ps. aeruginosa organism count: 6.3E5
[4]; [21]
  Ps. aeruginosa organism count: 4.4E5
[4]; [22]
  Ps. aeruginosa organism count: 8.7E5
[4]; [23]
  Ps. aeruginosa organism count: 3.7E6
[4]; [24]
  Ps. aeruginosa organism count: 8.6E2
[4]; [25]
  Ps. aeruginosa organism count: 7.0E1
[4]; [26]
  Ps. aeruginosa organism count: <10
[4]; [27]
  Ps. aeruginosa organism count: 9.0E1
[4]; [28]
  Ps. aeruginosa organism count: 3.7E6
[4]; [29]
  Ps. aeruginosa organism count: <10
[4]; [30]
  Ps. aeruginosa organism count: <10
[4]; [31]
  Ps. aeruginosa organism count: <10
[4]; [32]
  Ps. aeruginosa organism count: <10
[4]; [33]
  Ps. aeruginosa organism count: 3.7E6
[4]; [34]
  Ps. aeruginosa organism count: 2.0E6
[4]; [35]
  Ps. aeruginosa organism count: 1.4E5
[4]; [36]
  Ps. aeruginosa organism count: 7.7E4
[4]; [37]
  Ps. aeruginosa organism count: 9.0E4
[5]; aminoalcohol 1500 ppm, Week 1
  H. resinae organism count: <1.0E2
[5]; aminoalcohol 1500 ppm, Week 2
  H. resinae organism count: <1.0E2
[5]; aminoalcohol 1500 ppm, Week 3
  H. resinae organism count: <1.0E2
[5]; aminoalcohol 1500 ppm, Week 4
  H. resinae organism count: <1.0E2
[5]; aminoalcohol 3000 ppm, Week 1
  H. resinae organism count: <1.0E2
[5]; aminoalcohol 3000 ppm, Week 2
  H. resinae organism count: <1.0E2
[5]; aminoalcohol 3000 ppm, Week 3
  H. resinae organism count: <1.0E2
[5]; aminoalcohol 3000 ppm, Week 4
  H. resinae organism count: <1.0E2
[6]; aminoalcohol 1500 ppm, Week 1
  Y. tropicalis organism count: <1.0E2
[6]; aminoalcohol 1500 ppm, Week 2
  Y. tropicalis organism count: <1.0E2
[6]; aminoalcohol 1500 ppm, Week 3
  Y. tropicalis organism count: <1.0E2
[6]; aminoalcohol 1500 ppm, Week 4
  Y. tropicalis organism count: <1.0E2
[6]; aminoalcohol 3000 ppm, Week 1
  Y. tropicalis organism count: <1.0E2
[6]; aminoalcohol 3000 ppm, Week 2
  Y. tropicalis organism count: <1.0E2
[6]; aminoalcohol 3000 ppm, Week 3
  Y. tropicalis organism count: <1.0E2
[6]; aminoalcohol 3000 ppm, Week 4
  Y. tropicalis organism count: <1.0E2

## CCCCCCCC/C=C\CCCCCCCC(=O)O [Oleic Acid, oleic acid]
[2]; additive 500 ppm, Week 1
  Bacteria (Ps. aeruginosa) count: 7.80E+05 Bact/ml
[2]; additive 500 ppm, Week 2
  Bacteria (Ps. aeruginosa) count: 8.80E+05 Bact/ml
[2]; additive 500 ppm, Week 3
  Bacteria (Ps. aeruginosa) count: 7.40E+05 Bact/ml
[2]; additive 500 ppm, Week 4
  Bacteria (Ps. aeruginosa) count: 8.00E+05 Bact/ml
[2]; additive 1500 ppm, Week 1
  Bacteria (Ps. aeruginosa) count: 5.00E+04 Bact/ml
[2]; additive 1500 ppm, Week 2
  Bacteria (Ps. aeruginosa) count: 2.00E+05 Bact/ml
[2]; additive 1500 ppm, Week 3
  Bacteria (Ps. aeruginosa) count: 1.30E+05 Bact/ml
[2]; additive 1500 ppm, Week 4
  Bacteria (Ps. aeruginosa) count: 3.20E+05 Bact/ml
[7]
  effect on microbial resistance of biodiesel: no effect
[5]; additive 500 ppm, Week 1
  Mold (H. resinae) count: 1.70E+05 Mold/ml
[5]; additive 500 ppm, Week 2
  Mold (H. resinae) count: 6.00E+05 Mold/ml
[5]; additive 500 ppm, Week 3
  Mold (H. resinae) count: 8.20E+05 Mold/ml
[5]; additive 500 ppm, Week 4
  Mold (H. resinae) count: 7.80E+03 Mold/ml
[5]; additive 1500 ppm, Week 1
  Mold (H. resinae) count: 6.40E+04 Mold/ml
[5]; additive 1500 ppm, Week 2
  Mold (H. resinae) count: 7.70E+05 Mold/ml
[5]; additive 1500 ppm, Week 3
  Mold (H. resinae) count: 6.00E+05 Mold/ml
[5]; additive 1500 ppm, Week 4
  Mold (H. resinae) count: 9.80E+03 Mold/ml

## CCCCCCCC/C=C\CCCCCCCC(=O)[O-].[K+] [KOH/Oleic, potassium oleate]
[7]
  effect on microbial resistance of biodiesel: no effect
